Tested on: AGS (KRAS G12D) cells, phospho-ERK
Experiment: pERK In Cell Western (ICW) assay (Method B)
Assay type: cell-based
Details: 3 hours
Experimental: pERK ICW is a high throughput screening assay to evaluate the cellular potency of mutant KRAS small molecule inhibitors. KRAS mutant cell line AGS (KRAS^G12D) were purchased from ATCC and maintained in DMEM and RPMI medium supplemented with 10% fetal bovine serum and Penicillin/Streptomycin.
Cells grown in exponential phase were trypsinized, resuspended in fresh media, and viable cells were counted using a cell counter with Trypan Blue (BioRad TC20). Cells were seeded into 384-well plate (Greiner 781091) at density of 5,000 cells/well for AGS and allowed to grow overnight in a 37° C. CO2 incubator. The next day, compounds were dispensed into wells with a ½ log, 10-point serial dilution and top concentration of 10 μM using Tecan D300e dispenser and incubated for 3 hours in a 37° C. CO2 incubator. Cells were then fixed with paraformaldehyde (Electron Microscopy Sciences, 15710, 4% final concentration) for 30 min, permeabilized with wash buffer (1×PBS+0.1% Triton X-100) for 30 min and blocked with Odyssey blocking buffer (Li—COR 927-70001) for 1 hour, all at room temperature (RT). Phospho-ERK antibody (CST 4370L) was diluted 1:500 in Odyssey blocking+0.2% Tween 20 and incubated with cells overnight at 4° C. The next day, plates were washed 5× with wash buffer, incubated with IRDye 800 CW, Goat anti-Rabbit secondary antibody (Li—COR 926-32211, 1:500) and DRAQ5 (CST 4084L, 1:5,000) diluted in Odyssey blocking+0.2% Tween 20 for 1 hour, washed 5×, and imaged on an Odyssey CLx imaging system.
For data analysis, signal intensities from 800 (phosphor-ERK) and 700 (DRAQ5) channels were extracted, and phospho-ERK signals were normalized to DRAQ5 signals for each well and percent of DMSO control values were computed. Data were then imported into Graphpad Prism to compute half-maximal inhibitory concentrations (IC50) using a 4-parameter variable slope model. Z-factor for each plate was computed from signals derived from wells treated with either DMSO or 5 μM of Trametinib. AGS pERK ICW (Method B) IC50 (uM) values of selected compounds are depicted in Table 2 with compounds having a value 0.001 uM to 0.01 uM as ++++; >0.01 uM to 0.1 uM as +++; >0.1 uM to 1 uM as ++; 1 uM to 10 uM as + and >10 uM as NA.

SMILES | IC50 (Homo sapiens) [µM] | IC50 [µM]
OC1CCCN(c2nc(OC[C@@]34CCCN3C[C@H](F)C4)nc3c2COC2(CCc4c(Cl)cccc42)C3)CC1 (mixture of isomers) [Compound 6, 1-[4′-chloro-2-[[rac-(2R,8S)-2-fluoro-1,2,3,5,6,7-hexahydropyrrolizin-8-yl]methoxy]spiro[5,8-dihydropyrano[4,3-d]pyrimidine-7,1′-indane]-4-yl]azepan-4-ol] | > 10 | –
CN(C)C(=O)c1cc2n(n1)CCCN(c1nc(OC[C@@]34CCCN3C[C@H](F)C4)nc3c1COC1(CCCc4c(Cl)cc(O)cc41)C3)C2 (mixture of isomers) [Compound 43, 5-[5′-chloro-7′-hydroxy-2-[[rac-(2R,8S)-2-fluoro-1,2,3,5,6,7-hexahydropyrrolizin-8-yl]methoxy]spiro[5,8-dihydropyrano[4,3-d]pyrimidine-7,1′-tetralin]-4-yl]-N,N-dimethyl-4,6,7,8-tetrahydropyrazolo[1,5-a][1,4]diazepine-2-carboxamide] | 1 to 10 | –
C=C1CN2CCCC2(COc2nc3c(c(N4CCCn5nc(C(=O)N(C)C)c(Cl)c5C4)n2)CO[C@@]2(CCc4c(Cl)cccc42)C3)C1 (mixture of isomers) [Compound 54, 3-chloro-N,N-dimethyl-5-[rac-(7S)-4′-chloro-2-[(6-methylene-2,3,5,7-tetrahydro-1H-pyrrolizin-8-yl)methoxy]spiro[5,8-dihydropyrano[4,3-d]pyrimidine-7,1′-indane]-4-yl]-4,6,7,8-tetrahydropyrazolo[1,5-a][1,4]diazepine-2-carboxamide] | 0.1 to 1 | –
Oc1ccc2c(c1)C1(CCC2)Cc2nc(OC[C@@]34CCCN3C[C@H](F)C4)nc(N3CCCCCC3)c2CO1 (single isomer, unassigned) [Compound 7] | > 10 | –
Oc1ccc2c(c1)C1(CCC2)Cc2nc(OC[C@@]34CCCN3C[C@H](F)C4)nc(N3CCCCCC3)c2CO1 (single isomer, unassigned) [Compound 8] | – | > 10
O=C1NC(=O)C2(CCCN(c3nc(OC[C@@]45CCCN4C[C@H](F)C5)nc4c3COC3(CCc5c(Cl)cccc53)C4)C2)N1 (single isomer, unassigned) [Compound 24A, (5*)-9-[(7*)-4′-chloro-2-[[(2R,8S)-2-fluoro-1,2,3,5,6,7-hexahydropyrrolizin-8-yl]methoxy]spiro[5,8-dihydropyrano[4,3-d]pyrimidine-7,1′-indane]-4-yl]-1,3,9-triazaspiro[4.5]decane-2,4-dione] | 1 to 10 | –
F[C@H]1CN2CCC[C@@]2(COc2nc3c(c(N4CCCCCC4)n2)COC2(CCc4c(Cl)cccc42)C3)C1 (stereo partly drawn) [Compound 1, 4′-(azepan-1-yl)-4-chloro-2′-(((2R,7aS)-2-fluorotetrahydro-1H-pyrrolizin-7a(5H)-yl)methoxy)-2,3,5′,8′-tetrahydrospiro[indene-1,7′-pyrano[4,3-d]pyrimidine]] | > 10 | –
F[C@H]1CN2CCC[C@@]2(COc2nc3c(c(N4C[C@H]5CC[C@@H](C4)N5)n2)COC2(CCc4c(Cl)cccc42)C3)C1 (stereo partly drawn) [Compound 2, 4′-((1R,5S)-3,8-diazabicyclo[3.2.1]octan-3-yl)-4-chloro-2′-(((2R,7aS)-2-fluorotetrahydro-1H-pyrrolizin-7a(5H)-yl)methoxy)-2,3,5′,8′-tetrahydrospiro[indene-1,7′-pyrano[4,3-d]pyrimidine]] | 1 to 10 | –
OC1CCCN(c2nc(OC[C@@]34CCCN3C[C@H](F)C4)nc3c2COC2(CCCc4ccc(Br)cc42)C3)CC1 (stereo partly drawn) [Compound 4, 1-[7′-bromo-2-[[(2R,8S)-2-fluoro-1,2,3,5,6,7-hexahydropyrrolizin-8-yl]methoxy]spiro[5,8-dihydropyrano[4,3-d]pyrimidine-7,1′-tetralin]-4-yl]azepan-4-ol] | > 10 | –
F[C@H]1CN2CCC[C@@]2(COc2nc3c(c(N4CCCCCC4)n2)COC2(CCCc4c(Br)cccc42)C3)C1 (stereo partly drawn) [Compound 5, 4-(azepan-1-yl)-5′-bromo-2-[[(2R,8S)-2-fluoro-1,2,3,5,6,7-hexahydropyrrolizin-8-yl]methoxy]spiro[5,8-dihydropyrano[4,3-d]pyrimidine-7,1′-tetralin]] | > 10 | –
F[C@H]1CN2CCC[C@@]2(COc2nc3c(c(N4C[C@H]5CC[C@@H](C4)N5)n2)COC2(CCCc4c(Br)cccc42)C3)C1 (stereo partly drawn) [Compound 10, 5′-bromo-4-(3,8-diazabicyclo[3.2.1]octan-3-yl)-2-[[(2R,8S)-2-fluoro-1,2,3,5,6,7-hexahydropyrrolizin-8-yl]methoxy]spiro[5,8-dihydropyrano[4,3-d]pyrimidine-7,1′-tetralin]] | > 10 | –
Oc1ccc2c(c1)C1(CCC2)Cc2nc(OC[C@@]34CCCN3C[C@H](F)C4)nc(N3CCCC(O)CC3)c2CO1 (stereo partly drawn) [Compound 14, 2-[[(2S,8R)-2-fluoro-1,2,3,5,6,7-hexahydropyrrolizin-8-yl]methoxy]-4-(4-hydroxyazepan-1-yl)spiro[5,8-dihydropyrano[4,3-d]pyrimidine-7,4′-tetralin]-6′-ol] | > 10 | –
OC1CCCN(c2nc(OC[C@@]34CCCN3C[C@H](F)C4)nc3c2COC2(CCCc4c(Cl)cccc42)C3)CC1 (stereo partly drawn) [Compound 15, 1-[5′-chloro-2-[[(2R,8S)-2-fluoro-1,2,3,5,6,7-hexahydropyrrolizin-8-yl]methoxy]spiro[5,8-dihydropyrano[4,3-d]pyrimidine-7,1′-tetralin]-4-yl]azepan-4-ol] | > 10 | –
N#CC1CCCN(c2nc(OC[C@@]34CCCN3C[C@H](F)C4)nc3c2COC2(CCc4c(Cl)cccc42)C3)CC1 (stereo partly drawn) [Compound 16, 1-(4-chloro-2′-(((2R,7aS)-2-fluorotetrahydro-1H-pyrrolizin-7a(5H)-yl)methoxy)-2,3,5′,8′-tetrahydrospiro[indene-1,7′-pyrano[4,3-d]pyrimidin]-4′-yl)azepane-4-carbonitrile] | > 10 | –
OC1CCCN(c2nc(OC[C@@]34CCCN3C[C@H](F)C4)nc3c2COC2(CCCc4ccc(Cl)cc42)C3)CC1 (stereo partly drawn) [Compound 17, 1-(7-chloro-2′-(((2R,7aS)-2-fluorotetrahydro-1H-pyrrolizin-7a(5H)-yl)methoxy)-3,4,5′,8′-tetrahydro-2H-spiro[naphthalene-1,7′-pyrano[4,3-d]pyrimidin]-4′-yl)azepan-4-ol] | 1 to 10 | –
F[C@H]1CN2CCC[C@@]2(COc2nc3c(c(N4CCC=CCC4)n2)COC2(CCc4c(Cl)cccc42)C3)C1 (stereo partly drawn) [Compound 18, 4′-chloro-2-[[(2R,8S)-2-fluoro-1,2,3,5,6,7-hexahydropyrrolizin-8-yl]methoxy]-4-(2,3,6,7-tetrahydroazepin-1-yl)spiro[5,8-dihydropyrano[4,3-d]pyrimidine-7,1′-indane]] | > 10 | –
CN(C)C(=O)c1cc2n(n1)CCCN(c1nc(OC[C@@]34CCCN3C[C@H](F)C4)nc3c1CO[C@]1(CCc4c(Cl)cccc41)C3)C2 [Compound 27B, 5-[(7R)-4′-chloro-2-[[(2R,8S)-2-fluoro-1,2,3,5,6,7-hexahydropyrrolizin-8-yl]methoxy]spiro[5,8-dihydropyrano[4,3-d]pyrimidine-7,1′-indane]-4-yl]-N,N-dimethyl-4,6,7,8-tetrahydropyrazolo[1,5-a][1,4]diazepine-2-carboxamide] | – | 0.1 to 1
CN1Cc2c(nc(OC[C@@]34CCCN3C[C@H](F)C4)nc2N2CCCCCC2)C[C@]12CCc1c(Cl)cccc12 [Compound 28A, (7S)-4-(azepan-1-yl)-4′-chloro-2-[[(2R,8S)-2-fluoro-1,2,3,5,6,7-hexahydropyrrolizin-8-yl]methoxy]-6-methyl-spiro[5,8-dihydropyrido[4,3-d]pyrimidine-7,1′-indane]] | > 10 | –

— patent publication US11912723B2, “KRAS modulators and uses thereof” (Quanta Therapeutics, Inc., priority 2022, dated 2024)
